Results published in patent publication US20050050594A1, “Tryptophan synthase as a site of herbicide action” (priority 1999, published 2005).
Read-outs that look alike come from different tables or passages of the source.

Experiments:
[1] = tested on: a variety of dicotyledonous and monocotyledonous plants; experiment: Postemergence greenhouse herbicidal test; assay type: in vivo; details: for activity in herbicidal (biological) assays, relative to inhibitors 1-5: comparison within the series of inhibitors 1 to 5
Description: The herbicidal activity of the compounds was tested as described in the U.S. Pat. No. 5,635,449. […] In the tests, seedling plants are grown in jiffy flats for about two weeks. The test compounds are dispersed in 50/50 acetone/water mixtures containing 0.5% TWEEN®20, a polyoxyethylene sorbitan monolaurate surfactant of Atlas Chemical Industries, in sufficient quantities to provide the equivalent of about 1.0 kg to 8.0 kg per hectare of test compound when applied to the plants through a spray nozzle operating at 40 psi for a predetermined time. After spraying, the plants are placed on greenhouse benches and are cared for in the usual manner, commensurate with conventional greenhouse practices. From four to five weeks after treatment, the seedling plants are examined and rate according to the rating system set forth below.

[2] = target: T1, Salmonella typhimurium tryptophan synthase holoenzyme (α2β2), TSα reaction (Salmonella typhimurium, UniProt P00929); experiment: Inhibition of tryptophan synthase by the TSα reaction, microtiter kinetic coupled enzyme assay; assay type: biochemical; details: for activity in enzyme inhibitory assays, relative to inhibitors 1-5: comparison within the series of inhibitors 1 to 5
T1 construct: made in house; host or cells: E. coli strain CB149pSTB7
T1 sequence (P00929 whole entry): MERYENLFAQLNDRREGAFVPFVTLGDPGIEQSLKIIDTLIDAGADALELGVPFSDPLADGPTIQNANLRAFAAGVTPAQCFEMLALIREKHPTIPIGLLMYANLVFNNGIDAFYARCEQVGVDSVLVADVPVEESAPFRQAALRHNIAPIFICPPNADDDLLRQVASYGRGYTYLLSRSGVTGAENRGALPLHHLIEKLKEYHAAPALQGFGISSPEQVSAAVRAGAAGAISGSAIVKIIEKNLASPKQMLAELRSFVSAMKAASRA
T1 sequence (P0A2K1 2-397, further chain): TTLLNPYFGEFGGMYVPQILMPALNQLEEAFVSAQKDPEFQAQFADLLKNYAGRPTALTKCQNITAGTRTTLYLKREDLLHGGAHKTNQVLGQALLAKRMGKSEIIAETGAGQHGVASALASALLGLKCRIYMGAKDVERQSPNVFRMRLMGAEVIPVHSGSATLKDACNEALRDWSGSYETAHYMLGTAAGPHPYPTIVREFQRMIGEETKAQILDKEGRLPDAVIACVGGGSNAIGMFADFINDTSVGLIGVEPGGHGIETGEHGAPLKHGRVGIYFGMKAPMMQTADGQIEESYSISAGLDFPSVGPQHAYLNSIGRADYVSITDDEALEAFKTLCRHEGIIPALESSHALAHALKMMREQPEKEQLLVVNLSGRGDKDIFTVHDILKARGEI
Excerpt: Inhibitors of TS were identified by their ability to inhibit the production of glyceraldehyde-3-P by the TSα reaction of the Salmonella typhimurium holoenzyme (α2β2) in the presence of a limiting amount of indole-3-glycerolphosphate and an excess of serine
The assay was developed as a new microtiter plate kinetic enzyme assay based on the combined methods of Creighton (EurJBch 13:1-10, 1970) and Creighton and Yanofsky (JBC 241:980, 1966) with modifications. The rate of glyceraldehyde production was measured as the linear […] (spectrophotometric absorbance at 340 nm) in the presence of glyceraldehyde-3-phosphate dehydrogenase in a coupled enzyme assay.
The assay solution contained a test inhibitor compound, 50 mM Tris-Cl (pH 7.8), 6 mM sodium arsenate, 5 μg/ml pyridoxal phosphate, 0.5 mM DTT, 0.18M NaCl, 60 mM serine, 1.6 mM NAD+, 8 e.u./ml yeast glyceraldehyde-3-phosphate dehydrogenase (Sigma, Catalog #G2647; Kirschner et al., Eur J Bch, 1975, 60:513 and approximately 1.5 e.u. Salmonella TS. 100 μM IGP was added to start the reaction, which was run at 37° C. and using 300 μl per assay in a microtiter plate.
The substrate IGP was used at 1.5 to 2 times its Km concentration to enhance the likelihood of identifying weak inhibitors, binding at the substrate binding site. This approach to identifying enzyme inhibitors was novel, since an excess of all substrates, (at least 5-times the Km value of each), is conventionally used in the measurement of enzyme activity.
Potential inhibitors were evaluated by adding 100 μM inhibitor (equimolar to substrate IGP):or less, in a 1:1 dilution series down from 100 μM, until the inhibition measured was less than 15%. Reaction rates at Vmax were compared in the presence and absence of inhibitors.
In addition, some weaker inhibitors were identified following preincubation of the inhibitor with the TS assay mix for 24 hrs prior to the addition of IGP. The identifying weaker inhibitors is to aid in a quantitative structure activity relationship (QSAR) evaluation, or to identify new herbicidal inhibitor leads. The previously known inhibitor IPP was used as a standard in all tests, where the I50 for IPP was 1-2 uM.

[3] = tested on: Arabidopsis thaliana; experiment: Herbicidal activity and tryptophan reversal on Arabidopsis grown on agar medium; assay type: in vivo; design: key: 0 - no effect; 9 - total kill; C - chlorotic seedlings 4-6 days after treatment
Description: In this experiment, TS inhibitors were tested on Arabidopsis thaliana grown Murashige minimal organics medium, (obtained from Life Technologies, Grand Island, N.Y.), containing 0.7% agar. Compounds were tested at different concentrations to assess their herbicidal activity.

[4] = target: T2, Arabidopsis TS enzyme (Arabidopsis thaliana, UniProt Q42529); experiment: TSα assay with recombinant plant TSα and TSβ expressed in E. coli; assay type: biochemical; details: inhibitor 82 uM; pAC 758 (1.5 ug) + pAC 755 (3 ug)
T2 construct: GST (N, cleaved yes); made in house; host or cells: E. coli DH5α (pGEX-2T constructs)
T2 sequence (Q42529 with tags, fused parts or gaps): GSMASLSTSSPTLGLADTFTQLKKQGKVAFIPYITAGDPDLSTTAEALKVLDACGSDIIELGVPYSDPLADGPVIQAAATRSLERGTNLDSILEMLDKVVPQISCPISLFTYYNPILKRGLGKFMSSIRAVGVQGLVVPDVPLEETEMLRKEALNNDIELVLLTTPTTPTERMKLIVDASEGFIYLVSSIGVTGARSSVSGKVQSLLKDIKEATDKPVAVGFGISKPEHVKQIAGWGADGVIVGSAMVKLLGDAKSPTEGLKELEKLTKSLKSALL
T2 sequence (P14671 with tags, fused parts or gaps partner): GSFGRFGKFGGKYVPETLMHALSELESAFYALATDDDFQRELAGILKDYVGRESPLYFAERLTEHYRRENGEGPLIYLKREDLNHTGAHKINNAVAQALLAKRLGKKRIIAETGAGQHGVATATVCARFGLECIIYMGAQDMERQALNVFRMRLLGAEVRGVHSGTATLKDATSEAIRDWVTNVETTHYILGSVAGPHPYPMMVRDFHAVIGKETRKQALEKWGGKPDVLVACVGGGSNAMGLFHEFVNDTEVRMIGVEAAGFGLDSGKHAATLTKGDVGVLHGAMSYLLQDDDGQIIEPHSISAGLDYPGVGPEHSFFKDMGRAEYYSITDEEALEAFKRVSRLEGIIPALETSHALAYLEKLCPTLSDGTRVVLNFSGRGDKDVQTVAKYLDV
Description: The plant TS proteins were expressed as fusion proteins with glutathione transferase (GST) to facilitate purification. After purification, the GST protein was cleaved off with thrombin as described above before the plant TS assays were performed. After thrombin cleavage, both TSα and TSβ-subunit proteins retained a Gly-Ser residue on the N-terminal of the protein in addition to the TS sequence. […]
The TSα enzyme assay was conducted as described in Example 3 for Salmonella TSα.
Specifically, phenylthiophosphonic acid compounds were used. The TSα assay conditions were as described for Salmonella TSα in Example 3 except that recombinant plant proteins were used instead of the Salmonella enzyme.

[5] = tested on: Synechocystis PCC 6803; experiment: End-product reversal in Synechocystis, culture growth in liquid medium; assay type: cell-based; details: for Culture density (%) / Culture density as A420: four days
Excerpt: Synechocystis is a unicellular green organism that is actually a photosynthetic bacterium, with a photosynthetic system very similar to that of higher plant chloroplasts. Culture growth of Synechocystis could be inhibited by a compound of the present invention, and the growth inhibition could be prevented in the presence of tryptophan.

[6] = post emergence greenhouse test, 4 kg/ha
[7] = I50 TS, TSα reaction of the highly purified Salmonella typhimiurium holoenzyme
[8] = I50 TS, TSα reaction of Salmonella holoenzyme
[9] = inhibitor 62 μM, +tryptophan 31 μM
[10] = inhibitor 62 μM, +tryptophan 62 μM
[11] = inhibitor 125 μM, +tryptophan 31 μM
[12] = inhibitor 125 μM, +tryptophan 62 μM
[13] = inhibitor 125 μM, no tryptophan

O=P(O)(O)CCCc1c[nH]c2ccccc12 [Compound 7a]
Herbicidal Activity [1, 6]: inactive | IC50 [2, 7]: 125000 nM

O=P(O)(O)CCCCc1c[nH]c2ccccc12 [Compound 7b, Phosphonic acid, [4-(indol-3-yl)butyl]-]
Herbicidal Activity [1, 6]: weak (weak activity = maximum 20-30% injury on any species) | IC50 [2, 7]: 20000 nM | IC50 ([2]; TS inhibition I50, TSα reaction, Salmonella holoenzyme, 30 min at 37° C., 100 μM IGP): 20000 nM

Nc1ccccc1SCCCCP(=O)(O)O [Compound 13, 4-(2-aminophenylthio)-butylphosphonic acid]
Herbicidal Activity ([1]; Postemergence application): + (+ = 30-80% injury to one species) | activity in herbicidal (biological) assays, relative to inhibitors 1-5 [1]: weakest activity | IC50 ([2]; TSα reaction of Salmonella holoenzyme, read-out: I50 TS): 400 nM | activity in enzyme inhibitory assays, relative to inhibitors 1-5 [2]: weakest activity

O=P(O)(O)C=CCCSc1ccccc1O [Compound 28, {4-[(o-hydroxyphenyl)thio]-1-butenyl}phosphonic acid]
herbicidal rating ([3]; herbicide 7.8 mM + 100 μM Trp): 0 | herbicidal rating ([3]; herbicide 7.8 mM, no Trp): 5C | herbicidal rating ([3]; herbicide 16 mM + 100 μM Trp): 0 | herbicidal rating ([3]; herbicide 16 mM, no Trp): 5C | herbicidal rating ([3]; herbicide 31 mM + 100 μM Trp): 0 | herbicidal rating ([3]; herbicide 31 mM, no Trp): 5C | herbicidal rating ([3]; herbicide 63 mM + 100 μM Trp): 0 | herbicidal rating ([3]; herbicide 63 mM, no Trp): 6C | herbicidal rating ([3]; herbicide 125 mM + 100 μM Trp): 0 | herbicidal rating ([3]; herbicide 125 mM, no Trp): 6C | herbicidal rating ([3]; herbicide 250 mM + 100 μM Trp): 0 | herbicidal rating ([3]; herbicide 250 mM, no Trp): 6C | herbicidal rating ([3]; herbicide 500 mM + 100 μM Trp): 0 | herbicidal rating ([3]; herbicide 500 mM, no Trp): 6C | herbicidal rating ([3]; herbicide 1000 mM + 100 μM Trp): 0 | herbicidal rating ([3]; herbicide 1000 mM, no Trp): 6C | Herbicidal Activity ([1]; Postemergence application): ++++ (++++ = 80-100% injury to more than three species) | IC50 [2, 8]: 570 nM

O=P(O)(O)C=CCCSc1cc(Br)ccc1O [Compound 31, Phosphonic acid, {4-[(5-bromo-2-hydroxyphenyl)thio]-1-butenyl}-]
Herbicidal Activity ([1]; Postemergence application): + (+ = 30-80% injury to one species) | TSα activity, % of control [4]: 16.1 % of control | TSα activity, relative Vmax [4]: 0.238 mOD/min | IC50 [2, 8]: 260 nM

O=P(O)(O)CCCC[S+]([O-])c1ccccc1O (stereo not shown) [Compound 32, {4-[(o-hydroxyphenyl)sulfinyl]butyl}phosphonic acid]
Herbicidal Activity ([1]; Postemergence application): +++ (+++ = 80-100% injury to two species) | TSα activity, % of control [4]: 1.5 % of control | TSα activity, relative Vmax [4]: 0.095 mOD/min | IC50 [2, 8]: 440 nM

O=P(O)(O)CCCCS(=O)(=O)c1ccccc1O [Compound 33, Phosphonic acid, {4-[(o-hydroxyphenyl)sulfonyl]butyl}-]
TSα activity, % of control [4]: 2.4 % of control | TSα activity, relative Vmax [4]: 0.150 mOD/min | IC50 [2, 8]: 360 nM

CC(C)N.CC(C)N.O=P(O)(O)C=CCCSc1ccccc1O [Inhibitor 1, 4-(2-hydroxyphenylthio)-1-butenylphosphonic acid, 1:2 salt with isopropylamine]
activity in herbicidal (biological) assays, relative to inhibitors 1-5 [1]: highest activity | activity in enzyme inhibitory assays, relative to inhibitors 1-5 [2]: highest activity

O=C(Oc1ccccc1SCCCCP(=O)(O)O)c1ccccc1 [Phosphonic acid, {4-[(2-hydroxyphenyl)thio]butyl}-, benzoate (ester)]
effect of tryptophan on the growth inhibitory effects [5]: completely reversed | Culture density (%) [5, 9]: 136% | Culture density as A420 [5, 9]: 0.726 | Culture density (%) [5, 10]: 132% | Culture density as A420 [5, 10]: 0.704 | Culture density (%) ([5]; inhibitor 62 μM, no tryptophan): 84% | Culture density as A420 ([5]; inhibitor 62 μM, no tryptophan): 0.449 | Culture density (%) [5, 11]: 116% | Culture density as A420 [5, 11]: 0.622 | Culture density (%) [5, 12]: 102% | Culture density as A420 [5, 12]: 0.544 | Culture density (%) [5, 13]: 7% | Culture density as A420 [5, 13]: 0.040 | TSα activity, % of control [4]: 2.7 % of control | TSα activity, relative Vmax [4]: 0.168 mOD/min

Phosphonic acid, {4-[(o-hydroxyphenyl)thio]butyl}-,aryl-butyrate (ester)
herbicidal rating ([3]; herbicide 7.8 mM + 100 μM Trp): 1 | herbicidal rating ([3]; herbicide 7.8 mM, no Trp): 5 | herbicidal rating ([3]; herbicide 16 mM + 100 μM Trp): 1 | herbicidal rating ([3]; herbicide 16 mM, no Trp): 6 | herbicidal rating ([3]; herbicide 31 mM + 100 μM Trp): 1 | herbicidal rating ([3]; herbicide 31 mM, no Trp): 6 | herbicidal rating ([3]; herbicide 63 mM + 100 μM Trp): 3 | herbicidal rating ([3]; herbicide 63 mM, no Trp): 7 | herbicidal rating ([3]; herbicide 125 mM + 100 μM Trp): 5 | herbicidal rating ([3]; herbicide 125 mM, no Trp): 7 | herbicidal rating ([3]; herbicide 250 mM + 100 μM Trp): 5 | herbicidal rating ([3]; herbicide 250 mM, no Trp): 7 | herbicidal rating ([3]; herbicide 500 mM + 100 μM Trp): 3 | herbicidal rating ([3]; herbicide 500 mM, no Trp): 7 | herbicidal rating ([3]; herbicide 1000 mM + 100 μM Trp): 3 | herbicidal rating ([3]; herbicide 1000 mM, no Trp): 7 | TSα activity, % of control [4]: 2.1 % of control | TSα activity, relative Vmax [4]: 0.133 mOD/min
